# Data reported in US20260226068A1, “IMIDAZOTRIAZINE IL-17A MODULATORS AND USES THEREOF” (DICE ALPHA, INC., priority 2023, published 2026).
# Experiments:
# IL-17A/A = biological target: T1, IL-17A/A (Homo sapiens, UniProt Q16552); test: IL-17A/A HEK-Blue cell assay (SEAP reporter); assay type: cell-based; details: HEK-Blue IL-17A reporter cells, IL17A/A 5 ng/mL, 20 hours, SEAP read at A630; read-out: HEK-Blue IL17AA (IC50 for IL-17A/A inhibition)
# T1 construct: purchased Genscript Z03228
# T1 sequence (Q16552 24-155): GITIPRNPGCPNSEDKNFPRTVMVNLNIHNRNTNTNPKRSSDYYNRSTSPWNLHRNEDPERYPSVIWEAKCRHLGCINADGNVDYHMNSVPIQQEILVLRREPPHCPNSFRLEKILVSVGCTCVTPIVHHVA
# IL-17A/F = biological target: T2, IL-17A/F (Homo sapiens, UniProt Q16552+Q96PD4); test: IL-17A/F HEK-Blue cell assay (SEAP reporter); assay type: cell-based; details: HEK-Blue IL-17A reporter cells, IL17A/F 5 ng/mL, 20 hours, SEAP read at A630; read-out: HEK-Blue IL17AF (IC50 for IL-17A/F inhibition)
# T2 construct: purchased R&D Systems
# T2 sequence (Q16552 24-155): T1 sequence (Q16552 24-155)
# T2 sequence (Q96PD4 31-163): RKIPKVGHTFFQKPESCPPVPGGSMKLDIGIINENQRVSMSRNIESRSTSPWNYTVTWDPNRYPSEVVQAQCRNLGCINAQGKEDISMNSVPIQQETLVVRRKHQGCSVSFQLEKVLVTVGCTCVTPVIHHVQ
SMILES,IC50 (IL-17A/A) [nM],IC50 (IL-17A/F) [nM]
"CCn1nccc1C(=O)N[C@H](c1cn2nc(C[C@H]3C[C@@H](C(F)(F)F)CNC3=O)c(C3CCOCC3)nc2n1)C1CCCCC1 [Compound 196, N-((1S)-cyclohexyl(2-(((3R,5R)-2-oxo-5-(trifluoromethyl)piperidin-3-yl)methyl)-3-(tetrahydro-2H-pyran-4-yl)imidazo[1,2-b][1,2,4]triazin-6-yl)methyl)-1-ethyl-1H-pyrazole-5-carboxamide]",< 100,< 100
CCn1nccc1C(=O)N[C@H](c1cn2nc(C[C@H]3C[C@@H](C(F)(F)F)CNC3=O)c(C3CCOCC3)nc2n1)C1CC2(C1)CC(F)(F)C2 [Compound 197],< 100,> 1000
CCn1nccc1C(=O)N[C@@H](c1cn2nc(C[C@H]3C[C@@H](C(F)(F)F)CNC3=O)c(C3CCOCC3)nc2n1)C1CC2CC2C1 (some centres unmarked) [Compound 198],< 100,100 to 1000
CCn1nccc1C(=O)N[C@H](c1cn2nc(C[C@H]3C[C@@H](C(F)(F)F)CNC3=O)c(N3CCN(C)[C@@H](C)C3)nc2n1)C1CCC(F)(F)CC1 [Compound 200],< 100,100 to 1000
CCn1nccc1C(=O)N[C@H](c1cn2nc(C[C@H]3C[C@@H](C(F)(F)F)CNC3=O)c(N[C@H]3CC[C@@H](OC)CC3)nc2n1)C1CCC(F)(F)CC1 [Compound 201],< 100,100 to 1000
"CCn1nccc1C(=O)N[C@H](c1cn2nc(C[C@H]3C[C@@H](C(F)(F)F)CNC3=O)c(C(C)C)nc2n1)[C@H]1CCCC(F)(F)C1 [Compound 205, N-((1S)—((S)-3,3-difluorocyclohexyl)(3-isopropyl-2-(((3R,5R)-2-oxo-5-(trifluoromethyl)piperidin-3-yl)methyl)imidazo[1,2-b][1,2,4]triazin-6-yl)methyl)-1-ethyl-1H-pyrazole-5-carboxamide]",< 100,< 100
"CCn1nccc1C(=O)N[C@H](c1cn2nc(C[C@H]3C[C@@H](C(F)(F)F)CNC3=O)c(C(C)C)nc2n1)[C@@H]1CCCC(F)(F)C1 [Compound 206, N-((1S)—((R)-3,3-difluorocyclohexyl)(3-isopropyl-2-(((3R,5R)-2-oxo-5-(trifluoromethyl)piperidin-3-yl)methyl)imidazo[1,2-b][1,2,4]triazin-6-yl)methyl)-1-ethyl-1H-pyrazole-5-carboxamide]",< 100,100 to 1000
"CC(C)n1nccc1C(=O)N[C@H](c1cn2nc(C[C@H]3C[C@@H](C(F)(F)F)CNC3=O)c(C3CCOCC3)nc2n1)[C@H]1CCCC(F)(F)C1 [Compound 211, N-((1S)—((S)-3,3-difluorocyclohexyl)(2-(((3R,5R)-2-oxo-5-(trifluoromethyl)piperidin-3-yl)methyl)-3-(tetrahydro-2H-pyran-4-yl)imidazo[1,2-b][1,2,4]triazin-6-yl)methyl)-1-isopropyl-1H-pyrazole-5-carboxamide]",< 100,< 100
"CCn1nccc1C(=O)N[C@H](c1cn2nc(C[C@H]3C[C@@H](C(F)(F)F)CNC3=O)c(C3(F)CCOCC3)nc2n1)C1CCC(F)(F)CC1 [Compound 212, N-((1S)-(4,4-difluorocyclohexyl)(3-(4-fluorotetrahydro-2H-pyran-4-yl)-2-(((3R,5R)-2-oxo-5-(trifluoromethyl)piperidin-3-yl)methyl)imidazo[1,2-b][1,2,4]triazin-6-yl)methyl)-1-ethyl-1H-pyrazole-5-carboxamide]",< 100,100 to 1000
"CCn1nccc1C(=O)N[C@H](c1cn2nc(C[C@H]3C[C@@H](C(F)(F)F)CNC3=O)c(CC3CCCOC3)nc2n1)C1CCC(F)(F)CC1 (stereo partly drawn) [Compound 213, N-((1S)-(4,4-difluorocyclohexyl)(2-(((3R,5R)-2-oxo-5-(trifluoromethyl)piperidin-3-yl)methyl)-3-((tetrahydro-2H-pyran-3-yl)methyl)imidazo[1,2-b][1,2,4]triazin-6-yl)methyl)-1-ethyl-1H-pyrazole-5-carboxamide]",< 100,100 to 1000
"CCn1nccc1C(=O)N[C@H](c1cn2nc(C[C@H]3C[C@@H](C(F)(F)F)CNC3=O)c(C(C)C(F)(F)F)nc2n1)C1CCC(F)(F)CC1 (stereo partly drawn) [Compound 214, N-((1S)-(4,4-difluorocyclohexyl)(2-(((3R,5R)-2-oxo-5-(trifluoromethyl)piperidin-3-yl)methyl)-3-(1,1,1-trifluoropropan-2-yl)imidazo[1,2-b][1,2,4]triazin-6-yl)methyl)-1-ethyl-1H-pyrazole-5-carboxamide]",< 100,100 to 1000
"C=CCCc1nc2nc([C@@H](NC(=O)c3ccnn3CC)C3CCC(F)(F)CC3)cn2nc1C[C@H]1C[C@@H](C(F)(F)F)CNC1=O [Compound 215, N-((1S)-(3-(but-3-en-1-yl)-2-(((3R,5R)-2-oxo-5-(trifluoromethyl)piperidin-3-yl)methyl)imidazo[1,2-b][1,2,4]triazin-6-yl)(4,4-difluorocyclohexyl)methyl)-1-ethyl-1H-pyrazole-5-carboxamide]",< 100,100 to 1000
"CCn1nccc1C(=O)N[C@H](c1cn2nc(C[C@H]3C[C@@H](C(F)(F)F)CNC3=O)c(C(C)(C)F)nc2n1)C1CCC(F)(F)CC1 [Compound 216, N-((1S)-(4,4-difluorocyclohexyl)(3-(2-fluoropropan-2-yl)-2-(((3R,5R)-2-oxo-5-(trifluoromethyl)piperidin-3-yl)methyl)imidazo[1,2-b][1,2,4]triazin-6-yl)methyl)-1-ethyl-1H-pyrazole-5-carboxamide]",< 100,100 to 1000
"Cn1nccc1C(=O)N[C@H](c1cn2nc(C[C@H]3C[C@@H](C(F)(F)F)CNC3=O)c(C3CCOCC3)nc2n1)[C@H]1CC[C@H](C)CC1 [Compound 218, 1-methyl-N—((S)-((1r,4S)-4-methylcyclohexyl)(2-(((3R,5R)-2-oxo-5-(trifluoromethyl)piperidin-3-yl)methyl)-3-(tetrahydro-2H-pyran-4-yl)imidazo[1,2-b][1,2,4]triazin-6-yl)methyl)-1H-pyrazole-5-carboxamide]",< 100,< 100
CCn1nccc1C(=O)N[C@H](c1cn2nc(C[C@H]3C[C@H](C)CNC3=O)c(C3CCOCC3)nc2n1)C1CCC(F)(F)CC1 [Compound 219],< 100,100 to 1000
CCn1nccc1C(=O)N[C@H](c1cn2nc(C[C@@H]3C[C@H](C)CNC3=O)c(C3CCOCC3)nc2n1)C1CCC(F)(F)CC1 [Compound 220],< 100,100 to 1000
"CCc1nonc1C(=O)N[C@H](c1cn2nc(C[C@H]3C[C@@H](C(F)(F)F)CNC3=O)c(C3CCOCC3)nc2n1)C1CCCCC1 [Compound 221, N—((S)-cyclohexyl(2-(((3R,5R)-2-oxo-5-(trifluoromethyl)piperidin-3-yl)methyl)-3-(tetrahydro-2H-pyran-4-yl)imidazo[1,2-b][1,2,4]triazin-6-yl)methyl)-4-ethyl-1,2,5-oxadiazole-3-carboxamide]",< 100,100 to 1000
CCn1nccc1C(=O)N[C@H](c1cn2nc(C[C@@H]3CC(F)(F)CNC3=O)c(C3CCOCC3)nc2n1)C1CCC(F)(F)CC1 [Compound 222],< 100,> 1000
CCn1nccc1C(=O)N[C@H](c1cn2nc(C[C@@H]3CC(F)(F)CNC3=O)c(C3CCOCC3)nc2n1)[C@H]1CC[C@H](C)CC1 [Compound 223],< 100,100 to 1000
